Experimental data: patent US20150011423A1, “MEANS AND METHODS FOR ASSESSING KIDNEY TOXICITY” (BASF SE, priority 2011, published 2015)
Marks after values point to notes of the source that are not given here.

System: rats
Assay: 28-day repeated dose study in rats with mass spectrometry-based plasma metabolite profiling (GC-MS, LC-MS, SPE-LC-MS); treatment ratios versus control
Details: plasma
[1] = female rats, day 7, high dose, Table 4a inhibition of weak acid excretion
[2] = female rats, day 7, high dose, Table 4b inhibition of weak acid excretion
[3] = female rats, day 14, high dose, Table 4a inhibition of weak acid excretion
[4] = female rats, day 14, high dose, Table 4b inhibition of weak acid excretion
[5] = female rats, day 28, high dose, Table 4a inhibition of weak acid excretion
[6] = female rats, day 28, high dose, Table 4b inhibition of weak acid excretion
[7] = male rats, day 7, high dose, Table 4c inhibition of weak acid excretion
[8] = male rats, day 7, high dose, Table 4d inhibition of weak acid excretion
[9] = male rats, day 14, high dose, Table 4c inhibition of weak acid excretion
[10] = male rats, day 14, high dose, Table 4d inhibition of weak acid excretion
[11] = male rats, day 28, high dose, Table 4c inhibition of weak acid excretion
[12] = male rats, day 28, high dose, Table 4d inhibition of weak acid excretion

## Cc1cc(Cl)ccc1OCC(=O)O [MCPA]
[1]
  Glycerol, lipid fraction, treatment ratio versus control: 1.69 *
  Linoleic acid (C18:cis[9,12]2), treatment ratio versus control: 1.66 *
  Lysophosphatidylcholine (C18:2), treatment ratio versus control: 1.38^
  Phosphatidylcholine (C16:0, C16:0), treatment ratio versus control: 1.52 *
  Phosphatidylcholine (C16:0, C18:2), treatment ratio versus control: 1.66 *
  Phosphatidylcholine (C16:0, C20:5), treatment ratio versus control: 2.03 *
  Phosphatidylcholine (C16:1, C18:2), treatment ratio versus control: 2.92 *
  Phosphatidylcholine (C18:0, C18:1), treatment ratio versus control: 1.57 *
  Phosphatidylcholine (C18:1, C18:2), treatment ratio versus control: 1.68^
  gamma-Linolenic acid (C18:cis[6,9,12]3), treatment ratio versus control: 4.23 *
[2]
  Arginine, treatment ratio versus control: 0.62 *
  Indole-3-lactic acid, treatment ratio versus control: 0.24 *
  Ketoleucine, treatment ratio versus control: 0.42 *
  Proline, treatment ratio versus control: 0.61 *
  Tryptophan, treatment ratio versus control: 0.17 *
  trans-4-Hydroxyproline, treatment ratio versus control: 0.57^
[3]
  Glycerol, lipid fraction, treatment ratio versus control: 1.38 *
  Linoleic acid (C18:cis[9,12]2), treatment ratio versus control: 1.36 *
  Lysophosphatidylcholine (C18:2), treatment ratio versus control: 1.45 *
  Phosphatidylcholine (C16:0, C16:0), treatment ratio versus control: 1.8 *
  Phosphatidylcholine (C16:0, C18:2), treatment ratio versus control: 1.82 *
  Phosphatidylcholine (C16:0, C20:5), treatment ratio versus control: 2.09 *
  Phosphatidylcholine (C16:1, C18:2), treatment ratio versus control: 2.88 *
  Phosphatidylcholine (C18:0, C18:1), treatment ratio versus control: 1.74 *
  Phosphatidylcholine (C18:1, C18:2), treatment ratio versus control: 2.12 *
  gamma-Linolenic acid (C18:cis[6,9,12]3), treatment ratio versus control: 2.93 *
[4]
  Arginine, treatment ratio versus control: 0.58 *
  Indole-3-lactic acid, treatment ratio versus control: 0.24 *
  Ketoleucine, treatment ratio versus control: 0.21 *
  Proline, treatment ratio versus control: 0.45 *
  Tryptophan, treatment ratio versus control: 0.18 *
  trans-4-Hydroxyproline, treatment ratio versus control: 0.47 *
[5]
  Glycerol, lipid fraction, treatment ratio versus control: 1.6 *
  Linoleic acid (C18:cis[9,12]2), treatment ratio versus control: 1.28 *
  Lysophosphatidylcholine (C18:2), treatment ratio versus control: 1.35 *
  Phosphatidylcholine (C16:0, C16:0), treatment ratio versus control: 1.78 *
  Phosphatidylcholine (C16:0, C18:2), treatment ratio versus control: 1.45 *
  Phosphatidylcholine (C16:0, C20:5), treatment ratio versus control: 1.61 *
  Phosphatidylcholine (C16:1, C18:2), treatment ratio versus control: 2.45 *
  Phosphatidylcholine (C18:0, C18:1), treatment ratio versus control: 1.56 *
  Phosphatidylcholine (C18:1, C18:2), treatment ratio versus control: 1.78 *
  gamma-Linolenic acid (C18:cis[6,9,12]3), treatment ratio versus control: 2.99 *
[6]
  Arginine, treatment ratio versus control: 0.58 *
  Indole-3-lactic acid, treatment ratio versus control: 0.23 *
  Ketoleucine, treatment ratio versus control: 0.15 *
  Proline, treatment ratio versus control: 0.42 *
  Tryptophan, treatment ratio versus control: 0.16 *
  trans-4-Hydroxyproline, treatment ratio versus control: 0.6 *
[7]
  3-Indoxylsulfate, treatment ratio versus control: 0.72^
  Aspartate, treatment ratio versus control: 0.58 *
  Ceramide (d18:1, C24:0), treatment ratio versus control: 1.2
  Cholesterolester No 01, treatment ratio versus control: 0.97^
  Lysophosphatidylethanolamine (C22:5), treatment ratio versus control: 1.16^
  Phosphatidylcholine (C16:0, C20:5), treatment ratio versus control: 1.73 *
  gamma-Linolenic acid (C18:cis[6,9,12]3), treatment ratio versus control: 1.69 *
[8]
  Arachidonic acid (C20:cis[5,8,11,14]4), treatment ratio versus control: 0.27 *
  Arginine, treatment ratio versus control: 0.72 *
  Aspartate, treatment ratio versus control: 0.58 *
  Choline plasmalogen (C18, C20:4), treatment ratio versus control: 0.64 *
  Cytosine, treatment ratio versus control: 0.63 *
  Glucose, treatment ratio versus control: 0.75 *
  Indole-3-lactic acid, treatment ratio versus control: 0.36 *
  Lysine, treatment ratio versus control: 0.4 *
  Lysophosphatidylcholine (C18:0), treatment ratio versus control: 0.81 *
  Methionine, treatment ratio versus control: 0.66 *
  Nervonic acid (C24:cis[15]1), treatment ratio versus control: 0.67 *
  Phosphatidylcholine (C18:0, C20:4), treatment ratio versus control: 0.36 *
  Ribal, treatment ratio versus control: 0.94 *
[9]
  3-Indoxylsulfate, treatment ratio versus control: 1.53 *
  Aspartate, treatment ratio versus control: 1.01^
  Ceramide (d18:1, C24:0), treatment ratio versus control: 2.39 *
  Cholesterolester No 01, treatment ratio versus control: 1.27 *
  Lysophosphatidylethanolamine (C22:5), treatment ratio versus control: 1.08^
  Phosphatidylcholine (C16:0, C20:5), treatment ratio versus control: 1.82 *
  gamma-Linolenic acid (C18:cis[6,9,12]3), treatment ratio versus control: 2.68 *
[10]
  Arachidonic acid (C20:cis[5,8,11,14]4), treatment ratio versus control: 0.42 *
  Arginine, treatment ratio versus control: 0.57 *
  Aspartate, treatment ratio versus control: 1.01^
  Choline plasmalogen (C18, C20:4), treatment ratio versus control: 0.76 *
  Cytosine, treatment ratio versus control: 0.63 *
  Glucose, treatment ratio versus control: 0.72 *
  Indole-3-lactic acid, treatment ratio versus control: 0.38
  Lysine, treatment ratio versus control: 0.3 *
  Lysophosphatidylcholine (C18:0), treatment ratio versus control: 0.83 *
  Methionine, treatment ratio versus control: 0.59 *
  Nervonic acid (C24:cis[15]1), treatment ratio versus control: 0.74 *
  Phosphatidylcholine (C18:0, C20:4), treatment ratio versus control: 0.55 *
  Ribal, treatment ratio versus control: 0.89 *
[11]
  3-Indoxylsulfate, treatment ratio versus control: 1.92 *
  Aspartate, treatment ratio versus control: 0.69^
  Ceramide (d18:1, C24:0), treatment ratio versus control: 1.72 *
  Cholesterolester No 01, treatment ratio versus control: 1.32 *
  Lysophosphatidylethanolamine (C22:5), treatment ratio versus control: 1.1
  Phosphatidylcholine (C16:0, C20:5), treatment ratio versus control: 2.11 *
  gamma-Linolenic acid (C18:cis[6,9,12]3), treatment ratio versus control: 2.54 *
[12]
  Arachidonic acid (C20:cis[5,8,11,14]4), treatment ratio versus control: 0.26 *
  Arginine, treatment ratio versus control: 0.68 *
  Aspartate, treatment ratio versus control: 0.69 *
  Choline plasmalogen (C18, C20:4), treatment ratio versus control: 0.45 *
  Cytosine, treatment ratio versus control: 0.6 *
  Glucose, treatment ratio versus control: 0.6 *
  Indole-3-lactic acid, treatment ratio versus control: 0.3 *
  Lysine, treatment ratio versus control: 0.33 *
  Lysophosphatidylcholine (C18:0), treatment ratio versus control: 0.73 *
  Methionine, treatment ratio versus control: 0.64 *
  Nervonic acid (C24:cis[15]1), treatment ratio versus control: 0.76 *
  Phosphatidylcholine (C18:0, C20:4), treatment ratio versus control: 0.24 *
  Ribal, treatment ratio versus control: 0.77 *
